# Earlier results, collected in patent US20160045463A1, “USE OF METALLOPROTEASE INHIBITORS IN THE TREATMENT OF POLYCYSTIC LIVER DISEASES” (UNIVERSIDAD DE SALAMANCA, priority 2012, published 2016).
# How the values were obtained:
# [1] = test system: PCK rats; conditions: cited from earlier work
# [2] = test system: polycystic livers; conditions: ADPKD patients subjected to kidney transplant with polycystic livers; cited from earlier work
SMILES,liver cystogenesis [1],volume of the liver [2]
C[C@@H](O)[C@@H]1NC(=O)[C@H](CCCCN)NC(=O)[C@@H](Cc2c[nH]c3ccccc23)NC(=O)[C@H](Cc2ccccc2)NC(=O)[C@@H](NC(=O)[C@H](N)Cc2ccccc2)CSSC[C@@H](C(=O)N[C@H](CO)[C@@H](C)O)NC1=O [octreotide],inhibited,–
C=CC[C@@H]1/C=C(\C)C[C@H](C)C[C@H](OC)[C@H]2O[C@@](O)(C(=O)C(=O)N3CCCC[C@H]3C(=O)O[C@H](/C(C)=C/[C@@H]3CC[C@@H](O)[C@H](OC)C3)[C@H](C)[C@@H](O)CC1=O)[C@H](C)C[C@@H]2OC [tacrolimus],–,increased the volume of the liver
